Data taken from article PMC10766984, “Josephin domain containing 2 (JOSD2) promotes lung cancer by inhibiting LKB1 (Liver kinase B1) activity” (Signal Transduction and Targeted Therapy, 2024).
Counter-ions that a name gives are not always drawn.

Key:
[1] = target: T1, GST-JOSD2 (Homo sapiens, UniProt Q8TAC2); details: for JOSD2 Activity Inhibition (%): compound concentration 2 μM, JOSD2 inhibitor screening, related to Fig. 7a; for inhibition at 2 µM: read-out: JOSD2 Activity Inhibition (%); for JOSD2 activity inhibition ratio: 2 μM compound incubated with GST-JOSD2 at 37 °C for 30 min
T1 sequence (Q8TAC2 1-188): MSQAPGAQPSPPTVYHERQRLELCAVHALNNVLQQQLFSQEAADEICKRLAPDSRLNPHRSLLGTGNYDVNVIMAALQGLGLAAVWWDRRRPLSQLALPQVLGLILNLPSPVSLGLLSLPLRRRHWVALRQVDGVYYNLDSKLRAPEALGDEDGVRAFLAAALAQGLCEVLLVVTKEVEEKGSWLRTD

[2] = system: LKB1-WT NSCLC cell lines; assay: Proliferation assay, panel of LKB1-WT cell lines; type: cell-based; details: indicated concentrations, 72 h
Description: The indicated cell lines were treated with indicated compounds at a series of concentrations for 72 h, followed by cell proliferation assay and colony formation assay. Black dashed line indicates 50% of cell survival.
For cell proliferation assay, cells infected with lentiviruses packaged indicated plasmids were seeded indicated number cells per well in 96-well plates. Cell number (absorbance) was then estimated by the sulforhodamine B (SRB) (Sigma-Aldrich, #230162) assay and the absorbance of the individual wells was determined at the optical density of 515 nm. For colony formation assay, cells infected with lentiviruses packaged indicated plasmids were seeded indicated number cells per well in 6-well plates. Two weeks later, cells were stained with SRB and the numbers of colonies having more than 50 cells were counted.

[3] = system: PDX LUAD 110519 (Case 1); assay: Patient-derived xenograft study, intratumor JOSD2 shRNA; type: in vivo, BALB/c-Nude mice
Description: (§1) PDXs were established in our lab using female BALB/c-Nude mice (4-5 weeks) implanted with tumor tissues from patients undergoing surgeries. […] Once tumors reached approximately 50 mm^3 in volume, mice were randomly assigned to scramble control or JOSD2 shRNA intra-tumor injection treatment. For the intratumor injection, a mice received an intratumorally injection of 5 ×10^6 lentiviruses in 20 μL sterile saline solution every two days.

[4] = system: PDX LUAD 083120 (Case 2); assay: as above; type: in vivo, BALB/c-Nude mice
Description: as §1

Row | Compound | JOSD2 Activity Inhibition (%) [1] [%] | inhibition at 2 µM [1] [%] | other results
1 | CN1C2=CC(=O)/C(=N\NC(N)=O)C=C2CC1S(=O)(=O)[O-].[Na+] (stereo not drawn) [AC-17 (Carbazochrome sodium sulfonate)] | 9.85 |  | 
2 | CC(=O)OCC(=O)[C@@]12OC3(CCCC3)O[C@@H]1C[C@H]1[C@@H]3CCC4=CC(=O)C=C[C@]4(C)[C@@]3(F)[C@@H](O)C[C@@]12C [Amcinonide] |  | -19.2 | 
3 | Cl.N=C(N)NN [Aminoguanidine hydrochloride] | -35.00 |  | 
4 | CCOC(=O)C1=C(COCCN)NC(C)=C(C(=O)OC)C1c1ccccc1Cl (stereo not drawn) [Amlodipine Besylate] |  | -24.3 | 
5 | CCCCC(=O)O[C@]1(C(=O)CO)[C@@H](C)C[C@H]2[C@@H]3CCC4=CC(=O)C=C[C@]4(C)[C@@]3(F)[C@@H](O)C[C@@]21C [Betamethasone 17-valerate] |  | -26 | 
6 | C[C@]12CCC(=O)C=C1C=C[C@@H]1[C@@H]2CC[C@@]2(C)[C@H]1CC[C@@]21CCC(=O)O1 [Canrenone] |  | -22.3 | 
7 | COc1cc(CNC(=O)CCCC/C=C/C(C)C)ccc1O [Capsaicin] |  | 1.77 | 
8 | COC(=O)[C@H](c1ccccc1Cl)N1CCc2sccc2C1 [Clopidogrel sulfate] |  | -15 | 
9 | CCO/N=C1\c2ccccc2-c2nc(C#N)c(C#N)nc21 [DUBs-IN-2] | 5.01 |  | 
10 | C=CCO/N=C1\c2ccccc2-c2nc(C#N)c(C#N)nc21 [DUBs-IN-3] | 14.15 |  | 
11 | CC1(C)[C@@H](O[C@H]2O[C@H](C(=O)O)[C@@H](O)[C@H](O)[C@H]2O[C@@H]2O[C@H](C(=O)O)[C@@H](O)[C@H](O)[C@H]2O)CC[C@]2(C)[C@H]3C(=O)C=C4[C@@H]5C[C@@](C)(C(=O)O)CC[C@]5(C)CC[C@@]4(C)[C@]3(C)CC[C@@H]12.N.N [Diammonium Glycyrrhizinate] | -22.76 |  | 
12 | CCCC(NC(=O)/C(C#N)=C/c1nc(Cl)ccc1Cl)c1ccc(OCCN2CCOCC2)cc1 (stereo not drawn) [EOAI3402143] | 29.05 |  | 
13 | CN1C[C@H](C(=O)N[C@]2(C)O[C@@]3(O)[C@@H]4CCCN4C(=O)[C@H](Cc4ccccc4)N3C2=O)C=C2c3cccc4[nH]cc(c34)C[C@H]21 [Ergotamine bitartrate] |  | -5.18 | 
14 | O=S(=O)(O)c1cc(O)ccc1O [Etamsylate] |  | -21.4 | 
15 | CCc1c(-c2ccc3[nH]ncc3c2)cnc(N)c1-c1ccc(O)cc1 [GNE-6640] | 12.54 |  | 
16 | CC(C)(Sc1ccc(CCN(CCCCC2CCCCC2)C(=O)NC2CCCCC2)cc1)C(=O)O [GW7647] |  | -29.7 | 
17 | O=C1C=CC(=O)c2c1nnn2Cc1cc(F)cc(Cl)c1 [HY032801] |  | -0.98 | JOSD2 activity inhibition ratio [1]: −0.98%; Cell viability / cell proliferation [2]: failed to inhibit cell proliferation
18 | O=C(c1ccc(F)cc1)C1CCN(CCn2c(=O)[nH]c3ccccc3c2=O)CC1 [Ketaneserin] | -29.69 |  | 
19 | CC(=O)O/N=C1\C(=O)N(Cc2cc(Cl)ccc2Cl)c2ccc(Cl)cc21 [LDN-57444] | -16.75 |  | 
20 | COc1ccc(O)cc1 [Leucobasal] |  | -15.3 | 
21 | CC(=O)[C@H]1CC[C@H]2[C@@H]3C[C@H](C)C4=CC(=O)CC[C@]4(C)[C@H]3[C@@H](O)C[C@]12C [Medrysone] |  | -8.83 | 
22 | C[C@H]1C[C@@H]2[C@H]([C@@H](O)C[C@@]3(C)[C@H]2CC[C@]3(O)C(=O)COC(=O)CCC(=O)[O-])[C@@]2(C)C=CC(=O)C=C12.[Na+] [Methylprodnisolone Sodium Succinate] | -78.62 |  | 

Row | Compound | JOSD2 Activity Inhibition (%) [1] [%] | inhibition at 2 µM [1] [%] | other results
23 | CC(C)(C(=O)c1cccnc1)c1cccnc1 [Metyrapone] |  | -6.94 | 
24 | CCOC(=O)[N-]c1cn(N2CCOCC2)n[o+]1 [Molsidomine] |  | 35.8 | 
25 | CC(CCc1ccccc1)NC(C)C(O)c1ccc(O)cc1 (stereo not drawn) [Nylidrin hydrochloride] |  | -31.9 | 
26 | N#CSc1cc(SC#N)c(N)nc1N [PR-619, reference compound] | 42.70 |  | JOSD2 activity inhibition ratio [1]: 42.70%
27 | COc1ccc(Cc2nccc3cc(OC)c(OC)cc23)cc1OC [Papaverine hydrochloride] |  | -27.9 | 
28 | C#CCN(C)Cc1ccccc1 [Pargyline] |  | 29.8 | 
29 | CCc1ccc(CCOc2ccc(CC3SC(=O)NC3=O)cc2)nc1 (stereo not drawn) [Pioglitazone hydrochloride] |  | -5 | 
30 | CC(C(=O)O)c1ccc2c(c1)Cc1cccnc1O2 (stereo not drawn) [Pranoprofen] |  | -2.73 | 
31 | C[C@]12C=CC(=O)C=C1CC[C@@H]1[C@@H]2[C@@H](O)C[C@@]2(C)[C@H]1CC[C@]2(O)C(=O)COP(=O)([O-])[O-].[Na+].[Na+] [Prednisolone phosphate sodium] | 36.74 |  | 
32 | CCN(CC)CCNC(=O)c1ccc(N)cc1 [Procainamide hydrochloride] |  | -20.4 | 
33 | C#CCN[C@@H]1CCc2ccccc21 [Rasagiline] |  | 29 | 
34 | O=P(O)(O)C(O)(Cc1cccnc1)P(=O)(O)O [Risedronate Sodium] |  | 4.34 | 
35 | CC(=O)OCC(=O)NCCCOc1cccc(CN2CCCCC2)c1 [Roxatidine Acetate hydrochloride] |  | -20.8 | 
36 | O=C1c2ccccc2C(=O)c2oc(-c3ccccc3)nc21 [SJB2-043] | 13.43 |  | 
37 | O=C1c2ccccc2C(=O)c2oc(-c3cccnc3)nc21 [SJB3-019A] | 42.78 |  | 
38 | CCCSc1nc(N[C@@H]2C[C@H]2c2ccc(F)c(F)c2)c2nnn([C@@H]3C[C@H](OCCO)[C@@H](O)[C@H]3O)c2n1 [Ticagrelor] |  | 23.1 | 
39 | O=C(CCc1ccccc1)N1CCC(O)(Cn2cnc3cc(Cl)ccc3c2=O)CC1 [USP7-IN-1] | -29.77 |  | 
40 | O=C1/C(=C/c2ccc([N+](=O)[O-])cc2)CS(=O)(=O)C/C1=C\c1ccc([N+](=O)[O-])cc1 [Ubiquitin Isopeptidase Inhibitor I] | 1.00 |  | 
41 | C=CC(N)CCC(=O)O.Cl (stereo not drawn) [Vigabatrin Hydrochloride] | -16.37 |  | 
42 | HBX 19818 | -0.37 |  | 
43 | Tyloxapol | 29.65 |  | 
44 | shJOSD2#1: gene-specific shRNA targeting JOSD2, GCAACTATGATGTCAATGTGA, delivered by lentiviral vector (lentiviral shRNA) |  |  | Inhibition ratio [3]: 64.73%; T/C [3]: 37.84%; Tumor Weight ([3]; at the endpoint): 0.14 ± 0.07 g; RTV ([3]; intratumor injection): 3.20 ± 1.37; Inhibition ratio [4]: 52.24%; T/C [4]: 64.34%; Tumor Weight ([4]; at the endpoint): 0.08 ± 0.02 g; RTV ([4]; intratumor injection): 2.73 ± 0.63
